The values that follow come from US9884836B2, “2-substituted-5-hydroxy-4H-chromen-4-ones as novel ligands for the serotonin receptor 2B (5-HT2B)” (VIRGINIA COMMONWEALTH UNIVERSITY, priority 2014, dated 2018).

Read-outs that look alike come from different tables or passages of the source.

The target of one assay is 5-HT2A (Homo sapiens, UniProt P28223). Nature of the assay: Primary screening: inhibition of radioligand binding at 5-HT2A (NIMH PDSP).
The target of assay [1] is T1, 5-HT2B receptor (Homo sapiens, UniProt P41595). Nature of the assay: Primary screening: inhibition of radioligand binding at 5-HT2B (NIMH PDSP).
Assay [2] concerns the target T2, 5-HT2C (Homo sapiens, UniProt P28335).
T2 sequence (P28335 33-458): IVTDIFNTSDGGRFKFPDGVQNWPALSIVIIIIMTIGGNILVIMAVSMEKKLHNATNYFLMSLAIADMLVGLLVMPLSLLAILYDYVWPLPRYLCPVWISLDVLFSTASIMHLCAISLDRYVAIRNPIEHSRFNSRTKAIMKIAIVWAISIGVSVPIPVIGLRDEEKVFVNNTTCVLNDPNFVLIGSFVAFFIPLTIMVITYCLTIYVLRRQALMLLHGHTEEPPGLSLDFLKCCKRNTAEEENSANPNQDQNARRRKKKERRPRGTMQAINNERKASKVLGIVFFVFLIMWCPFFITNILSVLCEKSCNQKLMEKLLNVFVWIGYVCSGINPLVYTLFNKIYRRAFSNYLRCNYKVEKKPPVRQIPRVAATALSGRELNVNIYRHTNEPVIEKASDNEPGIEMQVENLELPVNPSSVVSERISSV
Nature of the assay: Primary screening: inhibition of radioligand binding at 5-HT2C (NIMH PDSP).

For assay [3], the target named is T1, 5-HT2B receptor. Nature of the assay: Binding affinity (pKi) by competitive inhibition of [3H]LSD at 5-HT2B. Particulars: for Ki: pKi at 5-HT2B.
Assay [4] concerns the target T2, 5-HT2C. Nature of the assay: Binding affinity (pKi) at 5-HT2C.
The target in assay [5] is T1, 5-HT2B receptor. Nature of the assay: Calcium mobilization assay in Flp-In HEK cells (agonist/antagonist functional activity). Particulars: compound at 10 μM. In general terms: Calcium assays in cells follow changes in intracellular calcium, usually with a dye or a luminescent sensor.
Setting [6] is: read-out: % Inhibition of radioligand binding 5-HT2A.
Where [7] appears, read: read-out: % Inhibition of radioligand binding 5-HT2B.
The mark [8] stands for this setting: read-out: % Inhibition of radioligand binding 5-HT2C.
Setting [9] is: read-out: inhibitory activity at 5-HT2B.

5-HT2A, sequence (P28223 whole entry, species assumed): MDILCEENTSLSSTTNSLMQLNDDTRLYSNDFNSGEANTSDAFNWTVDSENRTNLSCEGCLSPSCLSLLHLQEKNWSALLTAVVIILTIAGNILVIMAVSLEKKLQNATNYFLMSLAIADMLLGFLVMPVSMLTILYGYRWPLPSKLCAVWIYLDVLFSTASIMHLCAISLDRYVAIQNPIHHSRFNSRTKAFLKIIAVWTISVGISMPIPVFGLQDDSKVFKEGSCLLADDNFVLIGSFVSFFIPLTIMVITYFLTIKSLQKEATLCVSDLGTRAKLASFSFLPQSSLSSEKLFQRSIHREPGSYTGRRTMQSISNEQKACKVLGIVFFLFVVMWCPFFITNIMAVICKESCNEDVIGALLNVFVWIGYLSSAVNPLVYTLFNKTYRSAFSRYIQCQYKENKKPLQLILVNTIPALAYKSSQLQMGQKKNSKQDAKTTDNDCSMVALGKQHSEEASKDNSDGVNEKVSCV
T1 sequence (P41595 whole entry): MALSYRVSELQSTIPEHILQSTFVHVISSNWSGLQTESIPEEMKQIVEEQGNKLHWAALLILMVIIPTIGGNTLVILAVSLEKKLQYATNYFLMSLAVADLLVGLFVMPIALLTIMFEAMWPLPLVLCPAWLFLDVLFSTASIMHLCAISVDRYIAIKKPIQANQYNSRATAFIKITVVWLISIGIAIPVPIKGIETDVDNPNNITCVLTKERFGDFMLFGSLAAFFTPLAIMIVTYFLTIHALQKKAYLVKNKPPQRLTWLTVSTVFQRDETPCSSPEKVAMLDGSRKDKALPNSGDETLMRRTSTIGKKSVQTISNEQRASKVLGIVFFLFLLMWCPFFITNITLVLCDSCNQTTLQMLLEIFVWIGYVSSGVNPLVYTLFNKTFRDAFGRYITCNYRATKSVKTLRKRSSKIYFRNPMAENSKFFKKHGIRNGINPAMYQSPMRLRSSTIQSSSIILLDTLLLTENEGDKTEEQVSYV

With `O=c1cc(COc2cccc3ccccc23)oc2cccc(O)c12` [Compound 22p, 5-hydroxy-2-((naphthalen-1-yloxy)methyl)chromone], the values for the inhibition at 10 µM at 5-HT2A (setting [6]), at 5-HT2B receptor [1] (setting [7]) and at 5-HT2C [2] (setting [8]) were -1.1%, 11.8% and 0.7%, respectively.

Take `O=c1cc(Cc2cccc3ccccc23)oc2cccc(O)c12` [Compound 22q, 5-hydroxy-2-(naphthalen-1-ylmethyl)chromone]: the inhibition at 10 µM was 9.5% on 5-HT2A (setting [6]), 17.4% at 5-HT2B receptor [1] (setting [7]) and 2.1% on 5-HT2C [2] (setting [8]).

Regarding `O=c1cc(COCc2ccccc2)oc2cccc(O)c12` [Compound 22j, 5-hydroxy-2-((benzyloxy)methyl)chromone], the negative-log Ki (pKi) at 5-HT2B on 5-HT2B receptor [3] (Table 7) stood at 5.8 ± 0.05. Further, the “fold decrease in 5-HT2B affinity compared to 5-HPPC (22h)” value at 5-HT2B receptor [3] (relative to 5-HPPC) was found to be 6 fold. Further, the inhibition at 10 µM at 5-HT2A (setting [6]) amounted to 3.2%; on 5-HT2B receptor [1] (setting [7]), 77.7%; at 5-HT2B receptor [1] (setting [9]), 78%; at 5-HT2C [2] (setting [8]), 42.1%.

Take `O=c1cc(CCc2ccccc2)oc2cc(O)ccc12` [Compound 22k, 7-hydroxy-2-phenethyl-4H-chromen-4-one]: the inhibition at 10 µM is 35.5% on 5-HT2A (setting [6]), 34.2% on 5-HT2B receptor [1] (setting [7]) and 33.7% on 5-HT2C [2] (setting [8]).

For the molecule `O=c1cc(CCCCc2ccccc2)oc2cccc(O)c12` [Compound 22i, 5-hydroxy-2-(4-phenylbutyl)-4H-chromen-4-one], the inhibition at 10 µM is 5.7% on 5-HT2A (read-out: % Inhibition 5-HT2A); 5.7% on 5-HT2A (setting [6]); 45.2% at 5-HT2B receptor [1] (read-out: % Inhibition 5-HT2B); 45.2% on 5-HT2B receptor [1] (setting [7]); 14.7% on 5-HT2C [2] (read-out: % Inhibition 5-HT2C); 14.7% on 5-HT2C [2] (setting [8]).

For `O=c1cc(COc2ccc3ccccc3c2)oc2cccc(O)c12` [Compound 22o, 5-hydroxy-2-((naphthalen-2-yloxy)methyl)chromone], the values for the inhibition at 10 µM at 5-HT2A (setting [6]), on 5-HT2B receptor [1] (setting [7]) and at 5-HT2C [2] (setting [8]) were -3%, 2.9% and -0.7%, respectively.

With `O=c1cc(CCc2cccc(O)c2)oc2cc(O)ccc12` [Compound 22m, 7-Hydroxy-2-(3′-hydroxy-2-phenylethyl)chromone], the inhibition at 10 µM at 5-HT2A (setting [6]) stood at 23.2%; on 5-HT2B receptor [1] (setting [7]), 25.3%; on 5-HT2C [2] (setting [8]), 0%.

As for `O=c1cc(CCc2ccc(O)cc2)oc2cc(O)ccc12` [Compound 22n, 7-Hydroxy-2-(4′-hydroxy-2-phenylethyl)chromone], the inhibition at 10 µM amounted to 33.3% on 5-HT2A (setting [6]), 40.8% on 5-HT2B receptor [1] (setting [7]), 53.1% on 5-HT2C [2] (setting [8]) and 53% on 5-HT2C [2] (read-out: inhibitory activity at 5-HT2C). In addition, the Ki on 5-HT2C [4] is 2510 nM; on 5-HT2C [4] (Table 7), 2450 nM.

Take `O=c1cc(CCc2ccco2)oc2cccc(O)c12` [Compound 22f, 5-Hydroxy-2-(2-(furan-2-yl)ethyl)chromone]: the “pKi at 5-HT2B” value at 5-HT2B receptor [3] stood at 5.7. This molecule gave a Ki on 5-HT2B receptor [3] (Table 7) of 1820 nM. Besides, the values for the inhibition at 10 µM at 5-HT2A (setting [6]), at 5-HT2B receptor [1] (setting [7]) and on 5-HT2C [2] (setting [8]) were 12.4%, 68.8% and 24.2%, respectively.

`O=c1cc(Cc2ccccc2)oc2cccc(O)c12` [Compound 22g, 2-benzyl-5-hydroxy-4H-chromen-4-one]: the inhibition at 10 µM on 5-HT2A (read-out: % Inhibition 5-HT2A) came to 1.4%; at 5-HT2A (setting [6]), 1.4%; on 5-HT2B receptor [1] (read-out: % Inhibition 5-HT2B), 30.6%; at 5-HT2B receptor [1] (setting [7]), 30.6%; on 5-HT2C [2] (read-out: % Inhibition 5-HT2C) it was 24.8%; on 5-HT2C [2] (setting [8]), 24.8%.

As to `O=c1cc(CC(O)c2ccccc2)oc2cc(O)ccc12` (stereo not drawn) [Compound 22l, 7-Hydroxy-2-(2′-hydroxy-2-phenylethyl)chromone], the inhibition at 10 µM on 5-HT2A (setting [6]) stood at 47.9%; at 5-HT2B receptor [1] (setting [7]), 16.6%; on 5-HT2C [2] (setting [8]) it was 44%.

As for `O=c1cc(CCc2cccs2)oc2cccc(O)c12` [Compound 22e, 5-hydroxy-2-(2-(thiophen-2-yl)ethyl)-4H-chromen-4-one], the Ki was 1260 nM at 5-HT2B receptor [3] and 1050 nM on 5-HT2B receptor [3] (Table 7). The inhibition at 10 µM turned out to be 1.4% on 5-HT2A (read-out: % Inhibition 5-HT2A); 1.4% at 5-HT2A (setting [6]); 74.8% at 5-HT2B receptor [1] (read-out: % Inhibition 5-HT2B); 74.8% on 5-HT2B receptor [1] (setting [7]); 19.6% on 5-HT2C [2] (read-out: % Inhibition 5-HT2C); 19.6% at 5-HT2C [2] (setting [8]).

For `O=c1cc(CCc2cccc(O)c2)oc2cccc(O)c12` [Compound 22c, 5-Hydroxy-2-(3′-hydroxy-2-phenylethyl)chromone], the “pKi at 5-HT2B” value on 5-HT2B receptor [3] is given as 5.9. On 5-HT2B receptor [3] (Table 7), this molecule had a Ki of 1290 nM. Besides, the inhibition at 10 µM at 5-HT2A (setting [6]) was 39%; on 5-HT2B receptor [1] (setting [7]), 76.3%; on 5-HT2B receptor [1] (setting [9]) it was 76%; at 5-HT2C [2] (setting [8]), 30.4%.

As for `O=c1cc(CCc2ccccc2O)oc2cccc(O)c12` [Compound 22b, 5-hydroxy-2-(2-hydroxyphenethyl)-4H-chromen-4-one], the inhibition at 10 µM at 5-HT2A (setting [6]) was 24.3%; on 5-HT2B receptor [1] (setting [7]), 12.8%; on 5-HT2C [2] (setting [8]), 23.8%.

As for `O=c1cc(Cc2cccs2)oc2cccc(O)c12` [Compound 22r, 5-hydroxy-2-(thiophen-2-ylmethyl)-4H-chromen-4-one], the inhibition at 10 µM at 5-HT2A (read-out: % Inhibition 5-HT2A) was -4.5%; at 5-HT2A (setting [6]), -4.5%; at 5-HT2B receptor [1] (read-out: % Inhibition 5-HT2B), 31.5%; on 5-HT2B receptor [1] (setting [7]), 31.5%; on 5-HT2C [2] (read-out: % Inhibition 5-HT2C), 23.5%; at 5-HT2C [2] (setting [8]), 23.5%.

For the molecule `O=c1cc(CCCc2ccccc2)oc2cccc(O)c12` [Compound 22h, 5-hydroxy-2-(3-phenylpropyl)-4H-chromen-4-one], the “pKi at 5-HT2B” value at 5-HT2B receptor [3] is given as 6.6. Also, the affinity at 5-HT2B receptor [3] (Table 7), expressed as Ki, was 240 nM. Moreover, the antagonist activity at 5-HT2B receptor [5] (challenged with an EC50 dose (1.6 nM) of 5-HT) is recorded as 20.5±0.5 % inhibition. Besides, on 5-HT2B receptor [5] (compared to 5-HT), the agonist activity is 0.23±0.2 % of the maximal response. Further, the inhibition at 10 µM was 5.4% on 5-HT2A (read-out: % Inhibition 5-HT2A); 5.4% at 5-HT2A (setting [6]); 70.4% on 5-HT2B receptor [1] (read-out: % Inhibition 5-HT2B); 70.4% at 5-HT2B receptor [1] (setting [7]); 7.9% at 5-HT2C [2] (read-out: % Inhibition 5-HT2C); 7.9% at 5-HT2C [2] (setting [8]).

Turning to `O=c1cc(COc2ccccc2)oc2cccc(O)c12` [Compound 22a, 5-hydroxy-2-(phenoxymethyl)-4H-chromen-4-one], the Ki on 5-HT2B receptor [3] and at 5-HT2B receptor [3] (Table 7) was > 10000 nM throughout. Besides, the inhibition at 10 µM is 0.2% on 5-HT2A (read-out: % Inhibition 5-HT2A); 0.2% on 5-HT2A (setting [6]); 50% at 5-HT2B receptor [1] (read-out: % Inhibition 5-HT2B); 50% on 5-HT2B receptor [1] (setting [7]); 50% at 5-HT2B receptor [1] (setting [9]); 7.8% at 5-HT2C [2] (read-out: % Inhibition 5-HT2C). For the same molecule, the inhibition at 10 µM on 5-HT2C [2] (setting [8]) stood at 7%.

Take `O=c1cc(COCCc2ccccc2)oc2cccc(O)c12` [Compound 22s, 5-hydroxy-2-(phenethoxymethyl)chromone]: at 5-HT2B receptor [3] (Table 7), the Ki is 1260 nM. Besides, the inhibition at 10 µM on 5-HT2A (setting [6]) was determined as 0.3%; at 5-HT2B receptor [1] (setting [7]) it was 77.7%; at 5-HT2C [2] (setting [8]), 11.7%.

One may read the pKi as the negative decadic logarithm of the Ki, by convention in mol/L. Lower therefore signals a large Ki. As a reminder, the Ki is a dissociation constant, usually derived from enzyme kinetics or from competition with a known ligand.
